Results reported in patent EP0072027A1, “Antiviral compounds” (THE WELLCOME FOUNDATION LIMITED, priority 1981, dated 1983).
In brackets after ≈: the same amount, converted by molar mass.

Key:
[1] = Solubility in water; assay type: physicochemical
From the text: As mentioned above, the compounds of formula (I) have the important advantage of having a greater solubility in water than acyclovir. Thus, the compounds of formula (I) wherein X is an oxygen atom and R is a hydroxy group or amino group have solubilities of 0.4 -.0.5% and 2 - 3% w/w respectively compared with a figure of 0.14% w/w for acyclovir.

[2] = tested on: herpes simplex virus type 1; assay: Comparative in vivo activity against herpetic encephalitis in mice (Example 18); design: species or system CD.1 mice; settings: for Mean reciprocal survival time: 100 mg/kg/dose twice daily for 4½ days, 300 LD50
Procedure: CD.1 mice weighing 16 - 20 gm were obtained from Charles River, Manston, Kent, U.K. The animals were housed in groups of approximately 10 and were given food and water ad lib.
The compounds namely acyclovir, 134U, 759U and 457U, were prepared as suspensions or solutions in sterile water at a concentration of 20 mg/ml prior to each experiment, and were stored at 4°C during the dosing period.
The ICI strain of herpes simplex virus type 1 was used for all experiments at a concentration of 300 LD50 (10^5 pfu)/ml). Dilutions from virus stocks ([…]) were prepared in PBS 'A'.
The test procedure is analoguous to that described in Example 13.
Three experiments were performed, in which three routes of compound administration were examined: i) subcutaneous, ii) oral and iii) intraperitoneal. […]

[3] = tested on: Equine rhinopneumonitis virus (EHV-1); assay: In vivo activity against equine rhinopneumonitis virus in hamsters (Example 14), intraperitoneal and oral; design: species or system Syrian weanling hamsters; settings: Equid alphaherpesvirus 1, ip, 120 h; intraperitoneally for 5 days commencing 5 hours pre-infection; read-out: dose rate generally necessary to prevent any virus-induced mortality
[4] = tested on: EHV-1 Pneumabort vaccine strain; assay: Comparative in vivo activity against equine rhinopneumonitis virus in hamsters, medicated drinking water (Example 15); design: species or system Syrian hamsters; settings: for Cumulative mortality (out of 15) on day: water conc. 0.075 mg/ml, average intake 6.6-6.8 mg/kg/day
Procedure: 50 male WO/CR Syrian hamsters were caged randomly in 10 groups of 5, with water and food (seed mix) ad lib. Hamsters were weighed on Days -3, 0, 4, and/or- at death/sacrifice. Water consumption was recorded over Days -3 to 0 to 4.
EHV-1 Pneumabort vaccine strain stored as a 10^-1 dilution, was further diluted 10^-1 in PBS for infection. On Day 0, hamsters in Groups 1-9 received 0.2 ml virus inoculum s/c in the left flank equivalent to about 2 x 10^5 PFU (plaque-forming units).
457U and 759U were dissolved in drinking water at 0.075 mg/ml. Assuming an average daily intake of […], this would result in a daily dose of around 10 mg/kg. Medicated water was provided from approximately 5 hours pre-infection for 96 hours, as below
The drug intake was calculated from the weight of the animals and the water consumption recorded over the period of the experiment.

Row | Compound | solubility [1] | Mean reciprocal survival time ([2]; Oral) | Mean reciprocal survival time ([2]; i.p.) | Mean reciprocal survival time ([2]; s.c.) | minimal effective dose [3] | antiviral effect compared with acyclovir and 134U ([2]; any of the three routes, difference highly significant) | deaths from virus-induced hepatitis ([4]; in 15 treated hamsters, 14 deaths in 15 untreated controls) | prevention of EHV-1 induced mortality ([4]; orally in drinking water, approximately 7 mg/kg/day) | Cumulative mortality (out of 15) on day ([4]; day 2) | Cumulative mortality (out of 15) on day ([4]; day 3) | Cumulative mortality (out of 15) on day ([4]; day 4+)
1 | Nc1nc2c(ncn2COCCO)c(=O)[nH]1 [acyclovir, 9-(2-hydroxyethoxymethyl) guanine, reference compound] | 1400 µg/mL (≈ 6.22 mM) | 0.237 | 0.236 | 0.174 | 100 mg/kg/day | – | – | – | – | – | –
2 | Nc1nc2c(ncn2COC(CO)CO)c(=O)[nH]1 [Example 759U, 9-[(2-hydroxy-1-hydroxymethylethoxy)methyl]guanine] | – | 0.146 | 0.093 | 0.084 | – | greatest antiviral effect | no deaths | completely prevented | 0 | 0 | 0
